Values of other authors, collected in patent US20200316043A1, “PHARMACEUTICAL COMPOSITION COMPRISING CLEVIDIPINE AND PROCESS FOR PREPARATION THEREOF” (Aurobindo Pharma Ltd., priority 2017, published 2020).

Experiments:
[1] = molecular target: ileal and aortic smooth muscle and cardiac muscle (Homo sapiens, UniProt Q13936); conditions: EDTA treatment of ileal and aortic smooth muscle and cardiac muscle
ileal and aortic smooth muscle and cardiac muscle, sequence (Q13936 whole entry): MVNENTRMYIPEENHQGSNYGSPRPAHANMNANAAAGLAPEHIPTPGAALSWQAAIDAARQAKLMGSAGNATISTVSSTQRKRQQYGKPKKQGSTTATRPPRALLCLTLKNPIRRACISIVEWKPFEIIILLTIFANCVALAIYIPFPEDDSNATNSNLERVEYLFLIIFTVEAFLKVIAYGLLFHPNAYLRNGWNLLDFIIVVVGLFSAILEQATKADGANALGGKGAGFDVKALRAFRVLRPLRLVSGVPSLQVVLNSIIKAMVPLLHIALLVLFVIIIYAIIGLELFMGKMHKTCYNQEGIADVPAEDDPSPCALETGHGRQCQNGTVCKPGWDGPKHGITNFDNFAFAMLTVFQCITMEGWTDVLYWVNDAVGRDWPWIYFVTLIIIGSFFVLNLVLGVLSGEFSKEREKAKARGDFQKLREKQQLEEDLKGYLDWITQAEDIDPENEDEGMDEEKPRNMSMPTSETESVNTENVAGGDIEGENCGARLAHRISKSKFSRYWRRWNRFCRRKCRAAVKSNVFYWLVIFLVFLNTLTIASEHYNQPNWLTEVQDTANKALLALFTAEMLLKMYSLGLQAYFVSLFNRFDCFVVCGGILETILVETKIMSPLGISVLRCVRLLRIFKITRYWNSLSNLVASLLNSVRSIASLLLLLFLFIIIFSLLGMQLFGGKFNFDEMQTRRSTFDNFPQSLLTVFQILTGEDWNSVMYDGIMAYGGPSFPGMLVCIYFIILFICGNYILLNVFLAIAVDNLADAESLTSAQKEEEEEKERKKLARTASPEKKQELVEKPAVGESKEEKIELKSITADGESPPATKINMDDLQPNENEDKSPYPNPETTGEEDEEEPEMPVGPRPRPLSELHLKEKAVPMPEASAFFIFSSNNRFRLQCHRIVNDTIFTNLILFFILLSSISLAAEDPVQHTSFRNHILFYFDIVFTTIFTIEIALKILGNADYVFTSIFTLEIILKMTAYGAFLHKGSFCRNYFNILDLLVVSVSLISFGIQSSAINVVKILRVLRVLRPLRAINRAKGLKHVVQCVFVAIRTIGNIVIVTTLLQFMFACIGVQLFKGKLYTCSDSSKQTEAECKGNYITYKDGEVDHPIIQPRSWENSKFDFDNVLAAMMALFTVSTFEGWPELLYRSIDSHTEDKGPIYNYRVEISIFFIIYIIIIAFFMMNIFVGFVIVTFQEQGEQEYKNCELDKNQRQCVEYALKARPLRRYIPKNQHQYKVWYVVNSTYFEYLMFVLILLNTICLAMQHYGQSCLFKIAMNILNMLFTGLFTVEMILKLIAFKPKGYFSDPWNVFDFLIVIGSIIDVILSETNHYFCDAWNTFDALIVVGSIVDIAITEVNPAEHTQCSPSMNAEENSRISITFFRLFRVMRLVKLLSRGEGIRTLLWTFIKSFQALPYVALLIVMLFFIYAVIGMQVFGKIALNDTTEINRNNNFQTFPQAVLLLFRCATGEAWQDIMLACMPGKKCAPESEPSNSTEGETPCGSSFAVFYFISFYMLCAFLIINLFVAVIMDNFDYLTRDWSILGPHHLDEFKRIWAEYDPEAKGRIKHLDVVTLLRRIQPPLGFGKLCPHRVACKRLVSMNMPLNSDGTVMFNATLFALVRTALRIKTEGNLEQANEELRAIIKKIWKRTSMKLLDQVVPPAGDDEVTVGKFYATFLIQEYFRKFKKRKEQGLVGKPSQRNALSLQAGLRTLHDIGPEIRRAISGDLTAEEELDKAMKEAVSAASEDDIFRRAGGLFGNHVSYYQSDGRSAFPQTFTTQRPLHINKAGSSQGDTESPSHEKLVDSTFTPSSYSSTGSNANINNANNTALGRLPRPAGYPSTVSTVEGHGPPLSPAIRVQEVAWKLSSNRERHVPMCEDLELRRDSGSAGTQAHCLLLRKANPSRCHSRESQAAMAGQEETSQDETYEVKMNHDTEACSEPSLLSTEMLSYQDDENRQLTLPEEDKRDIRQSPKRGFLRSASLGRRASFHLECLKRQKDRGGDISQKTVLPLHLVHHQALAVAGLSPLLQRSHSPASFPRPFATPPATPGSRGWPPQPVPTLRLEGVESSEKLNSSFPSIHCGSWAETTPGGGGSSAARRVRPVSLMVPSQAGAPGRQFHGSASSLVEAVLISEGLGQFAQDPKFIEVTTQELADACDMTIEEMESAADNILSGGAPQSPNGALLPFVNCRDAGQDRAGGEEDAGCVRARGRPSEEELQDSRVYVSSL

SMILES	solubility in lipids	solubility in water	reduction of specific [3H] nitrendipine binding [1]
CCCC(=O)OCOC(=O)C1=C(C)NC(C)=C(C(=O)OC)C1c1cccc(Cl)c1Cl (stereo not drawn) [Clevidipine, butyroxymethyl methyl 4-(2′,3′dichlorophenyl)-1,4-dihydro-2,6-dimethyl-3,5-pyridinedicarboxylate]	moderate to high	low	–
O=C(O)CN(CCN(CC(=O)O)CC(=O)O)CC(=O)O [EDTA, Ethylene Diaminetetraacetic acid]	–	–	70-95%
